We go through eight molecules from patent EP1144368B1, “ACETYLENIC ALPHA-AMINO ACID-BASED SULFONAMIDE HYDROXAMIC ACID TACE INHIBITORS” (priority 1999, dated 2000).

One test concerns the target T1, MMP-1 (Homo sapiens, UniProt P03956).
T1 sequence (P03956 100-469): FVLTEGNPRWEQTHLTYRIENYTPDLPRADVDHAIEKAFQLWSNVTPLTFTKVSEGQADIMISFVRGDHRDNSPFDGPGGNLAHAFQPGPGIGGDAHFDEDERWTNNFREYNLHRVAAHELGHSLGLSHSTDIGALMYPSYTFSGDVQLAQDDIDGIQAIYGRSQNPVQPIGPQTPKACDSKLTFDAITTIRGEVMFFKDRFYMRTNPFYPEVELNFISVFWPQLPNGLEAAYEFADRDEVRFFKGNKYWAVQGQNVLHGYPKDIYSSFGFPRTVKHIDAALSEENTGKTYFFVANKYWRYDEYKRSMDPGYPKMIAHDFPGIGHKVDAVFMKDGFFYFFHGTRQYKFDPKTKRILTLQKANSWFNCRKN
Put plainly: MMP-1 inhibition (thiopeptide or fluorescent peptide substrate). The class given is biochemical.

For a further test, the target named is MMP-9 (Homo sapiens, UniProt P14780). In words: MMP-9 inhibition (thiopeptide or fluorescent peptide substrate). The class given is biochemical.
Chain of MMP-9 (P14780 107-707 limits assumed): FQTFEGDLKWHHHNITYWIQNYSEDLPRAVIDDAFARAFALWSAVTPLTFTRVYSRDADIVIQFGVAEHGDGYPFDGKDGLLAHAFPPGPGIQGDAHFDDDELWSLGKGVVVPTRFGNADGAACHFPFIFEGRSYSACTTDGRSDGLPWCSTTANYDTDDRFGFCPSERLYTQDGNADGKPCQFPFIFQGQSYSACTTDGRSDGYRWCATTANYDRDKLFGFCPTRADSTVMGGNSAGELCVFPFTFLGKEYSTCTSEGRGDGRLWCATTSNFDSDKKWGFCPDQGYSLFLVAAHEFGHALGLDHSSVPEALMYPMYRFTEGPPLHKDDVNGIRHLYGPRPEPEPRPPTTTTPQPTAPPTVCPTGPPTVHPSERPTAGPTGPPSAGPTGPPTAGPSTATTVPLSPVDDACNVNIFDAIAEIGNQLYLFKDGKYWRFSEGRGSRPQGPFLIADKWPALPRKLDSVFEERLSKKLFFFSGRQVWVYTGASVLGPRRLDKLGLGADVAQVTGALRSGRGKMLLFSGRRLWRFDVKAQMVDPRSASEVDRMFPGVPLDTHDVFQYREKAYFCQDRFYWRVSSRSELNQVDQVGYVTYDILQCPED
In another test the target is MMP-13 (Homo sapiens, UniProt P45452). In words: MMP-13 inhibition (thiopeptide or fluorescent peptide substrate). The format is biochemical.
A further test addresses TACE (Homo sapiens, UniProt P78536). In words: TACE inhibition (fluorescent peptidyl substrate). The class given is biochemical. Conditions: read-out: TACE IC50.
A further test concerns THP-1 cells. Put plainly: THP-1 Soluble Protein Assay (LPS-stimulated; ELISA of TNF-a, TNF-R p75/80, TNF-R p55/60, IL-8). Conditions: for inhibition at 3 µM: Homo sapiens. The class given is cell-based, human.
Where [1] appears, read: THP-1, read-out: THP % inhibition @ 3 µM, 3 µM.

Structures can show the parent of a compound that is named as a salt. Where two headings read alike, the source gives them in different places. A value given as a limit tells only on which side of the number the result lay.

Chain of TACE (P78536 215-824): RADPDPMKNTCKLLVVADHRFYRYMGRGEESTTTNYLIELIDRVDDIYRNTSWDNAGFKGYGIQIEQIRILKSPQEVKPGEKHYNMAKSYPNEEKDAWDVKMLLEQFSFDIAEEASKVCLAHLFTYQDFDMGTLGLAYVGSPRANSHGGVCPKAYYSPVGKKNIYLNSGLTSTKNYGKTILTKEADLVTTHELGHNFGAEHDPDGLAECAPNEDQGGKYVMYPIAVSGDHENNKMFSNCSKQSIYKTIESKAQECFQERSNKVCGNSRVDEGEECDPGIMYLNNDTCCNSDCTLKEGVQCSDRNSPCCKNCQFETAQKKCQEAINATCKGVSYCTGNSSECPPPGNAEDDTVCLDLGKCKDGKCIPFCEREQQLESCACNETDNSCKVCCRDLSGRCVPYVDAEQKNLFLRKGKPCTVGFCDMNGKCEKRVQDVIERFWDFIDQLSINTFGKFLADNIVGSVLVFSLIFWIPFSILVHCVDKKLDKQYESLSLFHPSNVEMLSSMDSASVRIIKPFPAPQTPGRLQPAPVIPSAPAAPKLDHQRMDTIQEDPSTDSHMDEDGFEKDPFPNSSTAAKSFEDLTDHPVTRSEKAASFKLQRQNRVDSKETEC
Experimental for MMP-13: (§1) The enzyme activity is measured by the rate of the color increase. The thiopeptide substrate is made up fresh as a 20 mM stock in 100% DMSO and the DTNB is dissolved in 100% DMSO as a 100 mM stock and stored in the dark at room temperature. Both the substrate and DTNB are diluted together to 1 mM with substrate buffer (50 mM HEPES pH 7.5, 5 mM CaCl2) before use. The stock of enzyme is diluted with buffer (50 mM HEPES, pH 7.5, 5 mM CaCl2, 0.02% Brij) to the desired final concentration.
(§2) Alternatively, a fluorescent peptide substrate is used. In this test procedure, the peptide substrate contains a fluorescent group and a quenching group. Upon cleavage of the substrate by an MMP, the fluorescence that is generated is quantitated on the fluorescence plate reader. The assay is run in HCBC assay buffer (50mM HEPES, pH 7.0, 5 mM Ca^+2, 0.02% Brij, 0.5% Cysteine), with human recombinant MMP-1, MMP-9, or MMP-13. The substrate is dissolved in methanol and stored frozen in 1 mM aliquots. For the assay, substrate and enzymes are diluted in HCBC buffer to the desired concentrations. Compounds are added to the 96 well plate containing enzyme and the reaction is started by the addition of substrate.
(§3) For either the thiopeptide or fluorescent peptide test procedures, the slope of the line is calculated and represents the reaction rate. The linearity of the reaction rate is confirmed (r^2 >0.85). The mean (x±sem) of the control rate is calculated and compared for statistical significance (p<0.05) with drug-treated rates using Dunnett's multiple comparison test.
Experimental for MMP-9: as §1, §2, §3
Experimental for TACE: Using 96-well black microtiter plates, each well receives a solution composed of 10 µL TACE (final concentration 1µg/mL), 70µL Tris buffer, pH 7.4 containing 10% glycerol (final concentration 10 mM), and 10 µL of test compound solution in DMSO (final concentration 1µM, DMSO concentration <1%) and incubated for 10 minutes at room temperature.
The reaction is read (excitation 340 nm, emission 420 nm) for 10 min. and the increase in fluorescence over time is plotted as a linear line. The slope of the line is calculated and represents the reaction rate.
The linearity of the reaction rate is confirmed (r^2 >0.85). The mean (x±sem) of the control rate is calculated and compared for statistical significance (p<0.05) with drug-treated rates using Dunnett's multiple comparison test.

What is called IC50 is the concentration that inhibits the measured activity by half. The term inhibition denotes the drop in the measured response relative to a control, in per cent. For the molecule `CC#CCOc1ccc(S(=O)(=O)N(CC#CCN(CC)CC)C(C(=O)NO)C(C)C)cc1` (stereo not drawn) [Example 126, 2-{{[4-(2-Butynyloxy)phenyl]sulfonyl}[4-(diethylamino)-2-butynyl]amino}-N-hydroxy-3-methylbutanamide], the half-inhibitory concentration (IC50) against MMP-1 amounted to 0.212 µM; against MMP-9, 0.149 µM; against MMP-13, 0.036 µM; at TACE, 0.073 µM. For the same molecule, in the test on THP-1 cells (setting [1]), the inhibition at 3 µM is 93%.
The matching figures for `CC#CCOc1ccc(S(=O)(=O)N(C)C(C(=O)NO)C(C)(C)SCCCN(CC)CC)cc1` (stereo not drawn) [Example 148]: 0.025 µM, 0.0048 µM, 0.0052 µM, 0.088 µM and 87%.
In the case of `CC#CCOc1ccc(S(=O)(=O)N(C)C(C(=O)NO)C(C)(C)SCCN2CCCC2C(=O)OC)cc1` (stereo not drawn) [Example 145], the IC50 on MMP-1 came out at 0.018 µM; at MMP-9 it was 0.0071 µM; against MMP-13 it was 0.0025 µM; at TACE, 0.109 µM. Besides, the inhibition at 3 µM with THP-1 cells (setting [1]) is 83%.
The matching figures for `CN(CC(=O)NO)S(=O)(=O)c1ccc(OCC#Cc2ccc(Cl)cc2)cc1` [Example 132, 2-[[(4-{[3-(4-Chlorophenyl)-2-propynyl]oxy}phenyl)sulfonyl](methyl)amino]-N-hydroxyacetamide]: over 10 µM, 2.37 µM, 1.12 µM, 1.1 µM and 27%.
For the molecule `CC#CCSc1ccc(S(=O)(=O)N(C)CC(=O)NO)cc1` [Example 134, 2-[(4-But-2-ynylthiophenylsulfonyl)methylamino]-N-hydroxyacetamide], the figures for the IC50 against MMP-1, against MMP-9 and at MMP-13 were 4.95 µM, 0.111 µM and 0.084 µM, respectively. Besides, in the test with THP-1 cells (setting [1]), the inhibition at 3 µM turned out to be 14%.
As for `CC#CCOc1ccc(S(=O)(=O)N(C)[C@@H](C)C(=O)NO)cc1` [Example 107, (2S)-2-[(4-But-2-ynyloxy-benzenesulfonyl)-methyl-amino]-N-hydroxy-propionamide], the IC50 was 0.33 µM against MMP-1, 0.068 µM at MMP-9 and 0.0045 µM at TACE.
Consider `CC#CCOc1ccc(S(=O)(=O)N(CC(=O)NO)Cc2cccnc2)cc1` [Example 23, 2-[(4-But-2-ynyloxy-benzenesulfonyl)-pyridin-3-ylmethyl-amino]-N-hydroxy-acetamide hydrochloride], for which the results for the IC50 on MMP-1, on MMP-9 and against MMP-13 were 1.16 µM, 0.04 µM and 0.02 µM, respectively. Also, in the test with THP-1 cells (THP-1, read-out: THP % inhibition @ 3 µM), the inhibition at 3 µM was found to be 63%.
Take “2-[(4-But-2-ynyloxy-benenesulfonyl)-methyl-amino]-N-hydroxy-3-methyl-3-ethylsulfanyl-butyramide [Example 150]”: the half-maximal inhibitory concentration (IC50) at MMP-1 turned out to be 0.025 µM; against MMP-9 it was 0.02 µM; against MMP-13, 0.0093 µM; at TACE it was 0.051 µM. Also, the “THP % inhibition @ 3 µM” value in the test with THP-1 cells (3 µM) stood at 86%.
